Results from patent US6136992A, “2-alkoxy estradiols and derivatives thereof” (The United States of America as represented by the …, priority 1998, dated 2000).
Where a name gives a salt, the structure may show the parent alone. Read-outs that look alike come from different tables or passages of the source.

Assays:
[1] = system: SF-539 central nervous system (CNS) cancer cells; experiment: NCI in vitro anticancer screen, SF-539 CNS cancer; type: cell-based; details: Homo sapiens, read-out: cytotoxicity GI50, CNS SF-539
Description: (§1) The effects of the analogs on cancer cell growth was investigated in the National Cancer Institute (NCI) Developmental Therapeutics Program's in vitro panel of approximately 55 cell lines (Grever et al., Seminars in Oncology 19:622 (1992), Alley et al., Cancer Research 48:589 (1988) and Montes et al., J. National Cancer Institute 83:757 (1991)). Representative results are listed in Table 1 for HOP-62 non-small-cell lung cancer cells, HCT-116 colon cancer cells, SF-539 central nervous system (CNS) cancer cells, UACC-62 melanoma cells, OVCAR ovarian cancer cells, SN12-C renal cancer cells, DU-145 prostate cancer cells, and MDA-MB-435 breast cancer cells.
(§2) ^a The cytotoxicity GI50 values are the concentrations

[2] = system: DU-145 prostate cancer cells; experiment: NCI in vitro anticancer screen, DU-145 prostate cancer; type: cell-based; details: Homo sapiens, DU-145, read-out: cytotoxicity GI50, Prostate DU-145
Description: as §1, §2

[3] = system: HCT-116 colon cancer cells; experiment: NCI in vitro anticancer screen, HCT-116 colon cancer; type: cell-based; details: Homo sapiens, HCT-116, read-out: cytotoxicity GI50, Colon HCT-116
Description: as §1, §2

[4] = system: all human cancer cell lines (approximately 55); experiment: NCI in vitro anticancer screen, all cell lines; type: cell-based
Description: as §1
^b Mean graph midpoint for all human cancer cell lines (approximately

[5] = system: HOP-62 non-small-cell lung cancer cells; experiment: NCI in vitro anticancer screen, HOP-62 non-small-cell lung cancer; type: cell-based; details: Homo sapiens, HOP-62, read-out: cytotoxicity GI50, Lung HOP-62
Description: as §1, §2

tubulin = experiment: Inhibition of tubulin polymerization (turbidimetry at 350 nm); type: biochemical, bovine; details: for IC50: 26° C., 20 min, read-out: Inhibn of Tubulin Polymn IC50
Protocol: Four instruments were used, and two control reaction mixtures were present in each experiment. […] IC50 values were determined graphically. […]
Inhibition of tubulin polymerization was investigated using electrophoretically homogeneous tubulin from bovine brain.

UACC-62 melanoma cells = experiment: NCI in vitro anticancer screen, UACC-62 melanoma; type: cell-based; details: Homo sapiens, UACC-62, read-out: cytotoxicity GI50, Melanoma UACC-62
Description: as §1, §2

[6] = system: SN12-C renal cancer cells; experiment: NCI in vitro anticancer screen, SN12-C renal cancer; type: cell-based; details: Homo sapiens, SN12C, read-out: cytotoxicity GI50, Renal SN12-C
Description: as §1, §2

[7] = system: MDA-MB-435 breast cancer cells; experiment: NCI in vitro anticancer screen, MDA-MB-435 breast cancer; type: cell-based; details: Homo sapiens, MDA-MB-435, read-out: cytotoxicity GI50, Breast MDA-MB-435
Description: The effects of the analogs on cancer cell growth was investigated in the National Cancer Institute (NCI) Developmental Therapeutics Program's in vitro panel of approximately 55 cell lines (Grever et al., Seminars in Oncology 19:622 (1992), Alley et al., Cancer Research 48:589 (1988) and Montes et al., J. National Cancer Institute 83:757 (1991)).

[8] = system: OVCAR ovarian cancer cells; experiment: NCI in vitro anticancer screen, OVCAR ovarian cancer; type: cell-based; details: Homo sapiens, read-out: cytotoxicity GI50, Ovarian OVCAR
Description: as §1, §2

estrogen receptor = biological target: T1, estrogen receptor (Rattus norvegicus, UniProt P06211); experiment: Estrogen binding affinity assay (comparative radiometric binding, rat uterine cytosol); details: for RBA (relative binding affinity): 0° C., estradiol = 100
T1 construct: from tissue; host or cells: rat uterine cytosol
T1 sequence (P06211 1-600): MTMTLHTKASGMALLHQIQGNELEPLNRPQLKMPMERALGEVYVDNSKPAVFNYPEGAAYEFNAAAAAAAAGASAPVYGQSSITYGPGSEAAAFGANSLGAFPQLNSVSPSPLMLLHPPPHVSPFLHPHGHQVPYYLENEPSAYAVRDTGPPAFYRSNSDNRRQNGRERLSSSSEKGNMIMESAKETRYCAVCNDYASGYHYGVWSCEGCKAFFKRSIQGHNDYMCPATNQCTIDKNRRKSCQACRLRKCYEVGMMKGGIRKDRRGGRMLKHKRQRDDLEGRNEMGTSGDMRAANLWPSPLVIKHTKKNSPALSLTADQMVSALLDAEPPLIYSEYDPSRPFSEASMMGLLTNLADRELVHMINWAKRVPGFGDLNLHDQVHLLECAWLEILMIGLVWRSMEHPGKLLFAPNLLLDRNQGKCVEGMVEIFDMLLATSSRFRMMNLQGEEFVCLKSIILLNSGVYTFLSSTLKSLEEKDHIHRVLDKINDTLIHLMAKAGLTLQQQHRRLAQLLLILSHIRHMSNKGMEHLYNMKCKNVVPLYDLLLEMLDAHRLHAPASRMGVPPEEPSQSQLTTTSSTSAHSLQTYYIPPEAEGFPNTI
Protocol: The assay of (11), (12) and (16) were conducted at 0° C. for 20 hours, while those for (1) and (2) were performed at 0° C. for 18 hours.

solid tumors = details: cited from earlier work
[9] = approximately 55 cell lines, read-out: MGM (mean graph midpoint for all human cancer cell lines), GI50
[10] = read-out: MGM (mean graph midpoint for all human cancer cell lines), GI50

Row | SMILES | GI50 [1] [µM] | GI50 [2] [µM] | GI50 [3] [µM] | GI50 [4, 9] [µM] | GI50 [5] [µM] | IC50 (tubulin) [µM] | GI50 (UACC-62 melanoma cells) [µM] | GI50 [6] [µM] | GI50 [7] [µM] | GI50 [8] [µM] | GI50 [4, 10] [µM] | inhibition of tubulin polymerization, relative activity in words (tubulin; comparison with 2-methoxy estradiol (1) or 2-ethoxy estradiol (2)) | affinity for the estrogen receptor, in words (estrogen receptor) | RBA (relative binding affinity) (estrogen receptor; 20 hours) | GI50 ([4]; read-out: GI50) [µM] | inhibition of neovascularization and growth of solid tumors in mice (solid tumors) | signs of toxicity at tumor-inhibiting doses (solid tumors; mice) | RBA (relative binding affinity) (estrogen receptor; 18 hours)
1 | CCOc1cc2c(cc1O)CC[C@@H]1[C@@H]2CC[C@]2(C)C(N)CC[C@@H]12 (stereo partly drawn) [Compound 20, 2-Ethoxy-3-Hydroxy-17-α/β-Aminoestra-1,3,5(10)-Triene Hydrochloride] | 3.99 | 1.93 | 3.15 | 3.31 | 10.9 | > 40 | 3.61 | 5.24 | 1.74 | 1.25 | – | – | – | – | – | – | – | –
2 | CCOc1cc2c(cc1O)C(=O)C[C@@H]1[C@@H]2CC[C@]2(C)[C@@H](O)CC[C@@H]12 [Compound 10, 2-Ethoxy-6-Oxoestra-1,3,5(10)-Triene-3,17β-Diol] | 0.71 | 0.17 | 0.02 | – | 0.03 | 4.8 | 0.01 | 0.18 | < 0.01 | 0.63 | 0.13 | – | – | – | – | – | – | –
3 | CCOc1cc2c(cc1OC(C)=O)C(=O)C[C@@H]1[C@@H]2CC[C@]2(C)[C@@H](OC(C)=O)CC[C@@H]12 [Compound 7, 2-Ethoxy-3,17β-Diacetoxy-6-Oxoestra-1,3,5(10)-triene] | 22.6 | 19.8 | 21.1 | 19.5 | 20 | > 40 | 17.7 | 19.8 | 18.4 | 23.7 | – | – | – | – | – | – | – | –
4 | CCOc1cc2c(cc1O)CC[C@@H]1[C@@H]2CC[C@]2(C)[C@@H](O)CC[C@@H]12 [Compound 2, 2-ethoxy estra-1,3,5(10)-trien-3,17β-diol] | – | – | – | – | – | 0.91 | – | – | – | – | – | over three times more active than 2-methoxy estradiol (1) | – | – | – | – | – | –
5 | CCOc1cc2c(cc1O)[C@@H](O)C[C@@H]1[C@@H]2CC[C@]2(C)[C@@H](O)CC[C@@H]12 [Compound 14, 2-Ethoxyestra-1,3,5(10)-Triene-3,6α,17β-Triol] | – | 0.71 | 0.35 | 0.83 | – | 2.5 | 0.28 | 0.66 | 5.39 | 0.35 | – | – | – | – | – | – | – | –
6 | CCOc1cc2c(cc1O)C(=NNS(=O)(=O)c1ccc(C)cc1)C[C@@H]1[C@@H]2CC[C@]2(C)[C@@H](O)CC[C@@H]12 [Compound 15, 2-Ethoxy-6-Tosylhydrazone-Estra-1,3,5(10)-Triene-3,17β-Diol] | 3.45 | 14.9 | 6.67 | 6.16 | 5.14 | > 40 | – | 12.1 | – | 3.18 | – | – | – | – | – | – | – | –
7 | C[C@]12CC[C@@H]3c4cc(OCC(F)(F)F)c(O)cc4CC[C@H]3[C@@H]1CC[C@@H]2O [Compound 3, 2-(2',2',2'-trifluoroethoxy)estra-3,17β-diol] | – | – | – | – | – | 1.7 | – | – | – | – | – | – | – | – | – | – | – | –
8 | CCOc1cc2c(cc1O)C(=NN)C[C@@H]1[C@@H]2CC[C@]2(C)[C@@H](O)CC[C@@H]12 [Compound 13, 2-Ethoxy-6-Hydrazone-estra-1,3,5(10)-Triene-3,17β-Diol] | 2.76 | 17 | 2.12 | 4.17 | 1.18 | 15 | 0.88 | 16.8 | 6.5 | 5.43 | – | – | – | – | – | – | – | –
9 | CC(=O)Oc1cc2c(cc1OCC(F)(F)F)[C@H]1CC[C@]3(C)[C@@H](OC(C)=O)CC[C@H]3[C@@H]1CC2=O [Compound 6, 2-(2',2',2'-Trifluoroethoxy)-3,17β-Diacetyloxy-Estra-6-Oxo-1,3,5(10)-Triene] | 5.11 | 15 | 3.71 | 9.77 | 8.7 | 6 | 3.33 | 23.5 | 26.5 | 3.52 | – | – | – | – | – | – | – | –
10 | CCOc1cc2c(cc1O)C(=NOC)C[C@@H]1[C@@H]2CC[C@]2(C)[C@@H](O)CC[C@@H]12 [Compound 16, 2-Ethoxy-6-(O-Methyl)hydroximino-Estra-1,3,5(10)-Triene-3,17β-Diol] | – | 0.32 | < 0.01 | – | < 0.01 | 0.75 | < 0.01 | 0.26 | 0.02 | < 0.01 | 0.24 | – | no affinity for the estrogen receptor | < 0.001 | – | – | – | –
11 | CCOc1cc2c(cc1O)C(=NO)C[C@@H]1[C@@H]2CC[C@]2(C)[C@@H](O)CC[C@@H]12 [Compound 11, 2-Ethoxy-6-Hydroximinoestra-1,3,5(10)-Triene-3,17β-Diol] | – | < 0.01 | < 0.01 | – | < 0.01 | 0.62 | < 0.01 | < 0.01 | < 0.01 | < 0.01 | 0.04 | – | no affinity for the estrogen receptor | < 0.001 | < 0.01 | – | – | –
12 | COc1cc2c(cc1O)CC[C@@H]1[C@@H]2CC[C@]2(C)[C@@H](O)CC[C@@H]12 [Compound 1, 2-methoxy estradiol, reference compound] | – | – | – | – | – | 2.9 | – | – | – | – | – | – | – | – | – | potent inhibitor of neovascularization of solid tumors and inhibits their growth | no apparent signs of toxicity | 0.245
